Measurements published in patent US20040043403A1, “Process for determining the biological activity of epidermal growth factor receptor tyrosine kinase inhibitors” (priority 2000, published 2004).

Key:
NCI-H520 = assay: Western blot of clusterin induction in NCI-H520 cells; type: cell-based, human; details: NCI-H520 cells (do not express EGFR), 300 nM, 24 h, vs 0.03% DMSO
Description: An EGFR tyrosine kinase inhibitor is dissolved in DMSO to obtain a 10 mM stock solution. The stock solution is further diluted in culture medium to final concentrations of 10 nM to 3 μM. 3.5 million cells/100 mm dish/12 ml culture medium are incubated for 24 h in 5% CO2 at 37° C. The medium is replaced with medium containing the EGFR tyrosine kinase inhibitor or DMSO. Cells are incubated for 4 to 32 h. The frozen pellets are lysed in 500 μl of lysis buffer (50 mM Tris-HCl pH 7.5, 1% Sodium Dodecyl Sulfate (SDS)). To shear genomic DNA, the cell lysates are processed in a FastPrep instrument for 20 sec at a speed rating of 4, using the green […] tubes (Bio101#6040-6010). Protein concentrations are determined according to the PIERCE-method (BCA Protein Assay, Reagent A and B). Protein concentration of lysates is adjusted to 1 μg/μl with lysis buffer. 4 parts of cell lysates are mixed with 1 part of 5 fold concentrated Laemmli buffer, the lysates are stored at -20° C. 40 μl of cell lysate is heated for 3 min to 95° C. and directly loaded on to 10% or 15% SDS-PAGE gels. The gels are run at 130 V for 90 min under standard conditions. The separated proteins are semi-dry blotted on to a PVDF membrane (Immobilon-P, Millipore #IPVH 202 00) for 70 min with 45 mA per blot. […]

A431 cells = assay: Real time RT-PCR gene expression in A431 cells; type: cell-based, human
Description: 20 million tissue culture cells (about 80% confluent) or 200 million WBCs are incubated for 2 or 24 h in culture medium containing 3 μM of an EGFR tyrosine kinase inhibitor or 0.03% DMSO. Total RNA from cell pellet is isolated using the RNeasy kit (Qiagen). mRNA is isolated using the oligotex mRNA purification kit (Qiagen). The quality of the obtained mRNA is tested by real time RT-PCR using beta-Actin primers (PE Applied Biosystems) with an amplicon size of 300 base pairs (bp). The total RNA is used as a reference to calculate the amount of mRNA-enrichment in the oligotex purified samples. 2 million A431 cells at about 80% confluency are treated with an EGFR tyrosine kinase inhibitor (100, 300 or 3000 nM) or 0.03% DMSO and incubated for 4, 8, 16 or 24 h. Total RNA is isolated using the RNeasy kit. The primers and probes are designed from mRNA sequences within the coding region or in the 3′ untranslated region (Table 2). For real time RT-PCR, RNA concentrations between 1 and 50 ng/reaction are used to obtain signals between 15-35 cycles. For each RNA preparation RT-PCR reactions are performed with and without reverse transcriptase to check for genomic DNA contamination. In all RNA samples tested, genomic DNA contamination is less than 1%. To normalize for variability in the initial concentration and quality of the total RNA, Glyceraldehyde-3-phosphate dehydrogenase (GAPDH) is used as an endogenous reference in all quantification experiments. For RT-PCR a one step, two-enzyme system is chosen. The TaqMan PCR Core Reagent Kit (PE #N808-0228) plus the reverse transcriptase MuLV (PE Biosystems # N808-0018) and RNase inhibitor (Roche Diagnostics # 799 025) are mixed as described in the manufacturers protocol. Triplicate measurements are done for target and for reference reactions. […] RT-PCR reactions are done with RNA concentrations of 2.5, 5, 10, 20, 40 and 80 ng per reaction. The absolute value of the slope of (log input amount) vs. ΔCT should be <0.1. The ΔCT value is determined by subtracting the average reference CT values from the average target CT values of the three measurements. Relative quantification is performed in triplicates, reference and target, using the RT-PCR protocol described above.

[1] = A431, 3 μM, 24 h, relative to DMSO-treated NCI-H520 calibrator
[2] = A431 cells, 3 μM, 24 hours, Experiment 1
[3] = A431 cells, 3 μM, 24 hours, Experiment 2
[4] = A431 cells, 3 μM, 24 hours, Experiment 3

C[C@@H](Nc1ncnc2[nH]c(-c3ccc(O)cc3)cc12)c1ccccc1 [COMPOUND A, (R)-6-(4-hydroxy-phenyl)-4-[(1-phenyl-ethyl)-amino]-7H-pyrrolo[2,3-d]pyrimidine]
Clusterin induction, Western blot (FIG. 4) (NCI-H520): no detectable clusterin levels
Relative Clusterin expression (A431 cells; [1]): 247.28 n-fold
Relative TRAIL expression (A431 cells; [1]): 99.50 n-fold
Relative VAC-beta expression (A431 cells; [1]): 57.20 n-fold
Induction of clusterin gene expression, dose and time dependency (FIGS. 1A and 1B) (A431 cells; A431 cells, 100 nM, 300 nM and 3 μM, 4 to 24 h, real time RT-PCR): shows dose and time dependency
Gene induction, Real time RT-PCR Experiment 1: Acute phase serum amyloid A protein (A431 cells; [2]): 6.6
Gene induction, Real time RT-PCR Experiment 1: Cathepsin H (A431 cells; [2]): 5.2
Gene induction, Real time RT-PCR Experiment 1: Caveolin (A431 cells; [2]): 2.8 ± 0.2
Gene induction, Real time RT-PCR Experiment 1: Complement component 3 (C3) (A431 cells; [2]): 5.6
Gene induction, Real time RT-PCR Experiment 1: Complement cytolysis inibitor (Clusterin) (A431 cells; [2]): 11.2 ± 2.0
Gene induction, Real time RT-PCR Experiment 1: DNA binding protein inhibitor ID-3 (A431 cells; [2]): 4.4
Gene induction, Real time RT-PCR Experiment 1: Extracellular protein S1-5 (A431 cells; [2]): 3.2 ± 1.7
Gene induction, Real time RT-PCR Experiment 1: TGF-beta induced gene (A431 cells; [2]): 5.2
Gene induction, Real time RT-PCR Experiment 1: TRAIL (A431 cells; [2]): 7.8 ± 1.6
Gene induction, Real time RT-PCR Experiment 1: VAC-beta (annexin VIII) (A431 cells; [2]): 2.8 ± 1.5
Gene induction, Real time RT-PCR Experiment 2: Acute phase serum amyloid A protein (A431 cells; [3]): 2.5 ± 1.1
Gene induction, Real time RT-PCR Experiment 2: Cathepsin H (A431 cells; [3]): 2.6 ± 0.9
Gene induction, Real time RT-PCR Experiment 2: Caveolin (A431 cells; [3]): 1.5 ± 0.4
Gene induction, Real time RT-PCR Experiment 2: Complement component 3 (C3) (A431 cells; [3]): 2.5 ± 0.4
Gene induction, Real time RT-PCR Experiment 2: Complement cytolysis inibitor (Clusterin) (A431 cells; [3]): 5.2 ± 1.4
Gene induction, Real time RT-PCR Experiment 2: DNA binding protein inhibitor ID-3 (A431 cells; [3]): 2.2 ± 0.1
Gene induction, Real time RT-PCR Experiment 2: Extracellular protein S1-5 (A431 cells; [3]): 1.7 ± 0.2
Gene induction, Real time RT-PCR Experiment 2: TRAIL (A431 cells; [3]): 4.1 ± 1.4
Gene induction, Real time RT-PCR Experiment 2: VAC-beta (annexin VIII) (A431 cells; [3]): 2.4 ± 0.9
Gene induction, Real time RT-PCR Experiment 3: Acute phase serum amyloid A protein (A431 cells; [4]): 3.3
Gene induction, Real time RT-PCR Experiment 3: Cathepsin H (A431 cells; [4]): 2.1
Gene induction, Real time RT-PCR Experiment 3: Caveolin (A431 cells; [4]): 2.6
Gene induction, Real time RT-PCR Experiment 3: Complement component 3 (C3) (A431 cells; [4]): 2.0
Gene induction, Real time RT-PCR Experiment 3: Complement cytolysis inibitor (Clusterin) (A431 cells; [4]): 6.2
Gene induction, Real time RT-PCR Experiment 3: DNA binding protein inhibitor ID-3 (A431 cells; [4]): 2.4
Gene induction, Real time RT-PCR Experiment 3: Extracellular protein S1-5 (A431 cells; [4]): 1.2 ± 0.5
Gene induction, Real time RT-PCR Experiment 3: TRAIL (A431 cells; [4]): 5.7 ± 0.03
Gene induction, Real time RT-PCR Experiment 3: VAC-beta (annexin VIII) (A431 cells; [4]): 2.5 ± 0.8
